Data published in patent US20020035157A1, “Pharmaceutical compositions” (priority 1999, published 2002).
Where two headings read alike, the source gives them in different places.

Experiments:
[1] = tested on: healthy individuals; details: 0.1 ml cream on 1 inch^2 of dorsum of non-dominant hand, single application, rated after 6 hours, 0-10 VAS, 40 volunteers
[2] = tested on: patients with osteoarthritis pain; experiment: Randomised, double blind, placebo controlled study in painful osteoarthritis: pain scores, analgesic consumption, desire to continue (Example 2); format: in vivo, human; details: for Reduction in pain score (VAS): after 42 days versus baseline pain score 4.2 (mean of days 1-4); for Reduction in pain score (VAS) compared to placebo: after 42 days, decrease beyond that given by cream vehicle alone; for percentage of patients who wished to continue with treatment: after six weeks; for Reduction in daily tablet consumption / Tablets per day after treatment: analgesic use; for Reduction in daily tablet consumption: from initial mean of 4 tablets daily; for Tablets per day after treatment: at beginning of treatment 4 tablets per day; for Mean Pain Score after 42 days (VAS): cream four times daily for six weeks to one painful joint, 0-10 VAS, baseline pain score 4.2; for Patients not wishing to continue / Patients wishing to continue: desire to continue with current treatment after six weeks
[3] = tested on: patients; details: cited from earlier work
[4] = tested on: patients with osteoarthritis pain

## COc1cc(CNC(=O)CCCC/C=C/C(C)C)ccc1O [Capsaicin, N-(4-hydroxy-3-methoxybenzyl)-8-methylnon-trans-6-enamide]
[1]
  VAS: median (range), burning discomfort: 3 VAS
[1]; listed as C
  VAS: median (range), burning discomfort: 3 (0-7) VAS
[2]
  Reduction in pain score (VAS): 0.5 VAS
  Reduction in pain score (VAS) compared to placebo: 0.28 VAS
  percentage of patients who wished to continue with treatment: 24.4%
  Reduction in daily tablet consumption: 0.28 tablets
  Tablets per day after treatment: 3.72 tablets per day
  Mean Pain Score after 42 days (VAS): 3.70 VAS
  Patients not wishing to continue: 29 patients
  Patients wishing to continue: 11 patients
[2]; listed as capsaicin
  Reduction in daily tablet consumption: 0.28 tablets
[3]; 0.025% capsaicin, Watson and colleagues, Clinical Therapeutics 1993
  patients who suffered burning after application: 9 of 33
[3]; 0.075% capsaicin, The Capsaicin Study Group
  patients who suffered burning discomfort after application: 87 of 138
[4]; regression estimate of baseline discomfort relative to the other groups, 10 cm VAS
  Application discomfort - Baseline scores versus treatment, VAS: 2.1 VAS

## O=[N+]([O-])OCC(CO[N+](=O)[O-])O[N+](=O)[O-] [GTN, Glyceryl trinitrate]
[1]
  VAS: median (range), burning discomfort: 0 VAS
[1]; listed as D
  VAS: median (range), burning discomfort: 0 (0-2) VAS
[2]
  Reduction in pain score (VAS): 0.59 VAS
  Reduction in pain score (VAS) compared to placebo: 0.37 VAS
  percentage of patients who wished to continue with treatment: 27.5%
  Tablets per day after treatment: 3.52 tablets per day
  Mean Pain Score after 42 days (VAS): 3.61 VAS
  Patients not wishing to continue: 34 patients
  Patients wishing to continue: 11 patients
[4]; equal effect to placebo
  initial application discomfort: marginal initial discomfort
[4]; human, in vivo
  Application discomfort - changes resulting from baseline score, Coefficient: 0.33
